Results from patent publication US20160366888A1, “ENVIRONMENTALLY FRIENDLY FORMULATIONS FOR BI-COMPONENT HETEROCYCLIC SCHIFF BASE TEXTILE FINISHES” (Government of the United States as Represented by the …, priority 2013, published 2016).

Columns and labels:
[1] = tested on: B. subtilis; assay: Antimicrobial activity (zone of inhibition) of treated cotton fabric; assay type: cell-based; conditions: aqueous solution applied to cotton fabric; observation over all plates
Text: (§1) Each aqueous solution prepared and applied to cotton fabric and tested for antimicrobial activity.
(§2) In Table 2, below, “5+” represents a zone of inhibition ranging 41 mm to 50 mm; “4+” represents a zone of 31 mm to 40 mm; “3+” represents a zone of 21 mm to 30 mm; “2+” represents a zone of 11 mm to 20 mm; “1+” represents a zone of 1 mm to 10 mm; and “−” represents no antimicrobial activity noted.
(§3) The American Association of Textile Chemists and Colorists (AATCC) test method 147, Antibacterial Assessment of Textile Materials was used to qualitatively test the biocidal efficacy of pretreatment solutions according to an embodiment of the present invention. Test material was aseptically transferred directly onto the surface of an inoculated nutrient agar slurry. After a specified incubation contact time, the test material was removed and any growth, or lack thereof, beneath the test material surface is recorded.

[2] = tested on: S. aureus; assay: as above; assay type: cell-based; conditions: aqueous solution applied to cotton fabric; observation over all plates
Text: as §1, §2, §3

SMILES | clearing of plates in words, B. subtilis [1] | clearing of plates in words, S. aureus [2]
Oc1cccc2cccnc12 [8HQ, 8-hydroxyquinoline] | cleared plates 2 | –
O=S(=O)(O)O.Oc1cccc2cccnc12.Oc1cccc2cccnc12 [Quinolinol salt hemisulfate, 8-HQ hemisulfate] | – | Cleared all of
